Results reported in US20080299234A1, “Medication Comprising Plant Extracts as a Lipase Inhibitor” (priority 2005, published 2008).

How the values were obtained:
triglyceride = details: Tsujita et al. 1996; Kagawa et al. 1996, 1998; cited from earlier work
pancreatic lipase = molecular target: T1, pancreatic lipase (Homo sapiens, UniProt P16233); details: application of Orlistat; cited from earlier work
T1 sequence (P16233 17-465): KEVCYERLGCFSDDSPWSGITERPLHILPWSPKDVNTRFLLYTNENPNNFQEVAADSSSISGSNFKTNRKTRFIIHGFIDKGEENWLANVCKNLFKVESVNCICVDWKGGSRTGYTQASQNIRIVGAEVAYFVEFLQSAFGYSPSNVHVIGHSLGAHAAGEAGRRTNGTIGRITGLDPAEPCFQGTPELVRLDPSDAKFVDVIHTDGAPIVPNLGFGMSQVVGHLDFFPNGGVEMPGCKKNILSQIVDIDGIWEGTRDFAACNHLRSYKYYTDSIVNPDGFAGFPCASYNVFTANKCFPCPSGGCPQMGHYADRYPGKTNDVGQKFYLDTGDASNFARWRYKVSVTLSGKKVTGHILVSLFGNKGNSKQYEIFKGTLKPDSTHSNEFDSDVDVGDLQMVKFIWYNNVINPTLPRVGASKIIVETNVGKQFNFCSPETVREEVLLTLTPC

[1] = test system: postprandial triglyceride values in the plasma of rats; experiment: lipid stress test in rats with Triton WR-1339 (postprandial rise in plasma triglyceride values); format: in vivo
Procedure: For further examination and verification of the results determined in vitro, the triglyceride-reducing effect was tested in an animal experiment.
To this end a lipid stress test was carried out in rats with Triton WR-1339 to inhibit the triglyceride elimination from the blood and the postprandial rise in plasma triglyceride values over four hours The following test substances were used:
Orlistat as positive control.
As result, the rise in postprandial triglyceride values in the plasma of rats after administration of the test substances was recorded. […] They include linseed, sunflower, marigold and propolis.

Compound | triglyceride-reducing (literature) (triglyceride) | undesired side effects (pancreatic lipase) | triglyceride values as a function of the time after food intake (in words) ([1]; rat plasma after lipid stress test, experimental period of four hours (FIG. 2)) | triglyceride-reducing effect (in words) ([1]; rats, lipid stress test with Triton WR-1339, postprandial plasma triglyceride rise (FIG. 1))
VVYP (UniProt P02070 32-35, looked up, fragment) [fragment 32-35 of the β-chain of bovine haemoglobin] | triglyceride-reducing | – | – | –
CCCCCCCCCCC[C@@H](C[C@@H]1OC(=O)[C@H]1CCCCCC)OC(=O)[C@H](CC(C)C)NC=O [Orlistat, Tetrahydrolipstatin] | – | oily or fatty stools | the lowest | –
protamine | triglyceride reducing | – | – | no triglyceride-reducing effect was found
